Assay results from patent US6455558B1, “Biocide composition and use” (Avecia Limited, priority 1998, dated 2002).
Values joined by “and” are separate entries in the source; they are usually repeats but may differ in a detail not shown here. Equal values may be shown once.

System: mixed inoculum of Aureobasidium pullulans, Fusarium solani, Penicillium funicularum, Scopulariopsis brevicaulis and Streptoverticillium waksmanii
Assay: Soil burial test of plasticised PVC strips containing biocide: weight loss after 20 weeks

Molecule | Actual % Weight Loss
CCCCCCCCn1sccc1=O [OIT, N-n-octyl isothiazolin-3-one] | 3.47% and 4.516% and 4.992% and 5.465%
Zinc Omadine [ZO] | 4.011% and 3.557% and 3.318% and 2.179%
